Measured values: patent publication US9115116B2, “Dual action inhibitors against histone deacetylases and 3-hydroxy-3-methylglutaryl coenzyme a reductase” (Academia Sinica, priority 2013, dated 2015)
Where two headings read alike, the source gives them in different places.

Assays:
HDAC6 = HDAC6 (Homo sapiens (Human), UniProt Q9UBN7); assay: HDAC fluorescent activity assay (HDAC6); format: biochemical; conditions: mean ± SD of three experiments
Method: (§1) The HDAC activity was performed using the HDAC fluorescent activity assay kit (BIOMOL, Plymouth Meeting, Pa., USA) according to the manufacturer's instructions. Briefly, recombinant proteins of HDAC1 or HDAC6 were incubated with test compounds, and HDAC reaction was initiated by addition of Fluor-de-Lys substrate. Samples were incubated for 10 min at room temperature, followed by adding developer to stop the reaction. Fluorescence was measured by fluorometric reader with excitation at 360 nm and emission at 460 nm. The HDAC activity was expressed as arbitrary fluorescence units (AFU). […] The half maximal inhibitory concentration (IC50) values for the test compounds were calculated from software SigmaPlot.

HDAC1 = HDAC1 (Homo sapiens (Human), UniProt Q13547); assay: HDAC fluorescent activity assay (HDAC1); format: biochemical
Method: as §1

HMGR = HMGR (Homo sapiens (Human), UniProt P04035); assay: HMG-CoA reductase (HMGR) activity assay, recombinant protein; format: biochemical; conditions: for IC50: mean ± SD of three experiments
From the text: HMG-CoA Reductase (HMGR) Activity Assay.

HDAC2 = HDAC2 (Homo sapiens (Human), UniProt Q92769); assay: HDAC fluorescent activity assay (HDAC2); format: biochemical
[1] = system: acetylation of α-tubulin in A549 cells; assay: Western blot analysis of tubulin acetylation in A549 cells; format: cell-based, human; conditions: SAHA at 5 μM
Method: (§2) After treated with test compounds (i.e., compounds of example 1), cells were lysed on ice, and cell lysates were collected and subjected to SDS-PAGE. Immunoblotting was performed using specific antibodies to evaluate the expression of proteins.
(§3) The intracellular histone acetylation status is a direct indicator for class I HDAC inhibition, whereas α-tubulin is the substrate of class II HDAC (i.e., HDAC 6).

[2] = system: acetylation of histone H3 in A549 lung cancer cells; assay: Western blot analysis of histone acetylation in A549 cells; format: cell-based, human; conditions: SAHA at 5 μM
Method: as §2, §3

[3] = molecular target: HMGR activity in A549 lung cancer cells (Homo sapiens (Human), UniProt P04035); assay: HMGR activity in whole cell lysates of treated A549 lung cancer cells; conditions: 1-50 μM, 24 h
HMGR activity in A549 lung cancer cells, sequence (P04035 whole entry): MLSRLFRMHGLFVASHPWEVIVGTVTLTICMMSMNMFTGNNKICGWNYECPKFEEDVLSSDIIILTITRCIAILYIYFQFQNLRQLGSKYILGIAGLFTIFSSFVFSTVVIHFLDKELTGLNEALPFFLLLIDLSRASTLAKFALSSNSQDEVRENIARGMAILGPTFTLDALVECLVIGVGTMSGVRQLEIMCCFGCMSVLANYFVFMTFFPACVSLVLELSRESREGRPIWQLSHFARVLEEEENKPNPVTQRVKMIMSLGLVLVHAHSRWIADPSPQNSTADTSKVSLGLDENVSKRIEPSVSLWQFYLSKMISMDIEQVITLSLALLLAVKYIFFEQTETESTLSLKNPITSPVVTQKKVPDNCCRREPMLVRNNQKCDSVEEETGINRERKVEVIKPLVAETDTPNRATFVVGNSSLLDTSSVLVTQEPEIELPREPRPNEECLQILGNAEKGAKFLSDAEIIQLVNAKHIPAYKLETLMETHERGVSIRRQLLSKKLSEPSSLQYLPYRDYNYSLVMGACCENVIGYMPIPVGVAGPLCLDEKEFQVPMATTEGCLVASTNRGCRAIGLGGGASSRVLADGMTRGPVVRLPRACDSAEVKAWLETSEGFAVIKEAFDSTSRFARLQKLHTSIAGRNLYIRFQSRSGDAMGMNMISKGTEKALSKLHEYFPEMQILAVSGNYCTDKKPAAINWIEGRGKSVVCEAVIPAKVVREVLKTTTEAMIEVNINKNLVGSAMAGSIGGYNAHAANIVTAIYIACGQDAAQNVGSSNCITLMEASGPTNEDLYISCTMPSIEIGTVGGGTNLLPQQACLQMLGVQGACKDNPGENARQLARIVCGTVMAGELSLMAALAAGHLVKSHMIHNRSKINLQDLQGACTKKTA
Method: A549 cells were cultured in Dulbecco's modified Eagle's medium (DMEM) in a humidified incubator containing 5% CO2/95% air.
The HMGR activity was performed using HMG-CoA reductase assay kit from Sigma-Aldrich with the human recombinant protein or 100 μg total cell lysates from A549 cells. […] HMGR activity under defined assay conditions, containing NADPH and HMG-CoA substrate in a final volume of 0.2 mL of 100 mM potassium phosphatate buffer (120 mM KCI, 1 mM EDTA, 5 mM DTT, pH 7.4), were initiated in the presence or absence (control) of test compounds dissolved in dimethylsulfoxide (DMSO). The rates of NADPH consumption were monitored every 20 seconds, for up to 10 minutes, by spectrophotometer at 37° C. and 340 nm. The HMGR activity was calculated as a percentage of activity compared with the control group at 5 min. The IC50 values were calculated from software SigmaPlot.

HDAC1, sequence (Q13547 whole entry, species assumed): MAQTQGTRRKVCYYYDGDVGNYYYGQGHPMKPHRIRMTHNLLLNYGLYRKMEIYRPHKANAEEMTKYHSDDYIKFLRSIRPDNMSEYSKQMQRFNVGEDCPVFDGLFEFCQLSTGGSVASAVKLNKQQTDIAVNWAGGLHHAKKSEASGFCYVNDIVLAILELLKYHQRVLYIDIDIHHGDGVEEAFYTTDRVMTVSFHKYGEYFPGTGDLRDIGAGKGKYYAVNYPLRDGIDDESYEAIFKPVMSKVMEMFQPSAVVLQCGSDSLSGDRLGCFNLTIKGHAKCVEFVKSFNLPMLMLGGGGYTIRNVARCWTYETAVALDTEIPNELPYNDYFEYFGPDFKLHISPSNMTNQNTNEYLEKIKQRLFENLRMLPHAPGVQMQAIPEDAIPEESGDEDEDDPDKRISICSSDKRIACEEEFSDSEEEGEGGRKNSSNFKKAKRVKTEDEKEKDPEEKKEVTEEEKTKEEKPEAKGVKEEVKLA
HDAC2, sequence (Q92769 whole entry, species assumed): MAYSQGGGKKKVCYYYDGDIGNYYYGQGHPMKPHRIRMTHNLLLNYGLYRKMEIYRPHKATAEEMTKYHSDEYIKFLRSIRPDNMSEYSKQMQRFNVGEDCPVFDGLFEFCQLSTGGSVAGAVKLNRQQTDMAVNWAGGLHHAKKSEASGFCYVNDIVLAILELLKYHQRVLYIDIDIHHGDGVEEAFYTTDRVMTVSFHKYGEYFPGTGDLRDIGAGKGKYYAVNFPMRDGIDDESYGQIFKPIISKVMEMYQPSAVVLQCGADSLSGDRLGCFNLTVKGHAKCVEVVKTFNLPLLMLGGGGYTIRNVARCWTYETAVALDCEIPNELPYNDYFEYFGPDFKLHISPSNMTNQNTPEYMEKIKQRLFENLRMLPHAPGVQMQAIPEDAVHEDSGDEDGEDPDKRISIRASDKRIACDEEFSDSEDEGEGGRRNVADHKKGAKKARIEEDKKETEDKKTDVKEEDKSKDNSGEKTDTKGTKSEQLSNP
HMGR, sequence (P04035 426-888 limits assumed): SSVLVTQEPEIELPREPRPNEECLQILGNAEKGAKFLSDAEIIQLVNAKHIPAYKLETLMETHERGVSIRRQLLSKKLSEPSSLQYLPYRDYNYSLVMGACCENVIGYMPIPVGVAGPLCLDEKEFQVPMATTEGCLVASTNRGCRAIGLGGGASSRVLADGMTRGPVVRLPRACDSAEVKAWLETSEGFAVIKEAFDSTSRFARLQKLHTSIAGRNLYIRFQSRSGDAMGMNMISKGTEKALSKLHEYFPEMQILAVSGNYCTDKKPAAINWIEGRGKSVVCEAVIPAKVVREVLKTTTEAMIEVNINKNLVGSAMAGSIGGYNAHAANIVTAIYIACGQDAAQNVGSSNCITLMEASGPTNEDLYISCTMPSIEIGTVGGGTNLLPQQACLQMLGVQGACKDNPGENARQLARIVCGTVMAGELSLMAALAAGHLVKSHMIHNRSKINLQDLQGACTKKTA
HDAC6, sequence (Q9UBN7 whole entry, species assumed): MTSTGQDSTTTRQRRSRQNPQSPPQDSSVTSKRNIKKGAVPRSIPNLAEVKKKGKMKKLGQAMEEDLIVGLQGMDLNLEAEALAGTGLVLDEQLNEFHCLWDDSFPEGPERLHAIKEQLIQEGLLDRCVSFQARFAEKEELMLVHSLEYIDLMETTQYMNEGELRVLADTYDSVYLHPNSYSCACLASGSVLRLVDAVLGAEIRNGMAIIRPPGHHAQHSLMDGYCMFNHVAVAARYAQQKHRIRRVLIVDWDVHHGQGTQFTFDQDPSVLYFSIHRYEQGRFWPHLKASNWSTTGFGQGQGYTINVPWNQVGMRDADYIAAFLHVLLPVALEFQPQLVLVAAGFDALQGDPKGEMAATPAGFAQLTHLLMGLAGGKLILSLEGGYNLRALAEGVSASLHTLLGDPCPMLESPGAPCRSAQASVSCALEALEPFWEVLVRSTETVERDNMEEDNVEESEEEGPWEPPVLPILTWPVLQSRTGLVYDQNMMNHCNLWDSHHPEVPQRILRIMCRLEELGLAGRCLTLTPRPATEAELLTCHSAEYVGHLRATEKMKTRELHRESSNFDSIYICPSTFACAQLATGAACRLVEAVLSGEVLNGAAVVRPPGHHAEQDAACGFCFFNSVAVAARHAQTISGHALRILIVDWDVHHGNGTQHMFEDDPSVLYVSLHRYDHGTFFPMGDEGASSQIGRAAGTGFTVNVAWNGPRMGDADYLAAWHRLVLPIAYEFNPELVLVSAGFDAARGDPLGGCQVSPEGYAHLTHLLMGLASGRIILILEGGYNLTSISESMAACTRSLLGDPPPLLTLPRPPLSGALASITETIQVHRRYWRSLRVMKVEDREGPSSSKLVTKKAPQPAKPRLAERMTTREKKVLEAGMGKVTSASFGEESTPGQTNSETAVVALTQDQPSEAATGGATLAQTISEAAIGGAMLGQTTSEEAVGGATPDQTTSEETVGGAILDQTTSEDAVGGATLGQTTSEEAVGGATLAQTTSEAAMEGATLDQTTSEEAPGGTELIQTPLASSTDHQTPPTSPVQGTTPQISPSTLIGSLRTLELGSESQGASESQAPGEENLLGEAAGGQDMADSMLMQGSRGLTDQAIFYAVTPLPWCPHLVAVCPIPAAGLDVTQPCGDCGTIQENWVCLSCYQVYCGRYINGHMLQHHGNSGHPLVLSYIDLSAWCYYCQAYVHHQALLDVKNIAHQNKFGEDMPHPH

SMILES | IC50 (HDAC6) | IC50 (HDAC1) | IC50 (HMGR) | IC50 (HDAC2) | IC50 (HDAC1; mean ± SD of three experiments) | IC50 (HDAC2; mean ± SD of three experiments) | tubulin acetylation (Western blot) [1] | histone acetylation (Western blot) [2] | inhibition of HMGR activity (in words) (HMGR; enzyme assay, any dose) | reduction of HMGR activity in whole cell lysates (in words) [3]
C#Cc1ccc(NC(=O)O[C@H]2C[C@@H](C)C=C3C=C[C@H](C)[C@H](CC[C@@H]4C[C@@H](O[Si](C)(C)C(C)(C)C)CC(=O)O4)[C@H]32)cc1 [6a, (4R,6R)-6-(2-{(1 S,2S,6R,8S,8aR)-8-[(4-ethynylphenyl)carbamoyloxy]-2,6-dimethyl-1,2,6,7,8,8a-hexahydronaphthyl}ethyl)-4-tert-butyldimethylsilyloxy-3,4,5,6-tetrahydro-2H-pyran-2-one] | 127 ± 21.5 nM | 159 ± 8.4 nM | 36.5 ± 5.3 nM | 463 ± 28 nM |  |  |  |  |  | 
C#Cc1ccc(CNC(=O)O[C@H]2C[C@@H](C)C=C3C=C[C@H](C)[C@H](CC[C@@H]4C[C@@H](O[Si](C)(C)C(C)(C)C)CC(=O)O4)[C@H]32)cc1 [6b, (4R,6R)-6-(2-{(1S,2S,6R,8S,8aR)-8-[(4-Ethynylbenzyl)carbamoyloxy]-2,6-dimethyl-1,2,6,7,8,8a-hexahydronaphthyl}ethyl)-4-tert-butyldimethylsilyloxy-3,4,5,6-tetrahydro-2H-pyran-2-one] | 34 ± 4.3 nM |  | 53.8 ± 5.2 nM |  | 125 ± 6.3 nM | 882 ± 9.7 nM |  |  |  | 
C[C@H]1C=C2C=C[C@H](C)[C@H](CC[C@@H]3C[C@@H](O[Si](C)(C)C(C)(C)C)CC(=O)O3)[C@H]2[C@@H](OC(=O)Nc2ccc(-c3cn(CCCCCCC(=O)NO)nn3)cc2)C1 [8a, (4R,6R)-6-(2-{(1S,2S,6R,8S,8aR)-8-[(4-{1-[7-(Hydroxyamino)-7-oxoheptyl]-1H-1,2,3-triazol-4-yl}phenyl)carbamoyloxy]-2,6-dimethyl-1,2,6,7,8,8a-hexahydronaphthyl}ethyl)-4-tert-butyldimethylsilyloxy-3,4,5,6-tetrahydro-2H-pyran-2-one] | 127 ± 21.5 nM | 159 ± 8.4 nM |  | 463 ± 28 nM |  |  | promoted histone and tubulin acetylation in a dose dependent manner | promoted histone and tubulin acetylation in a dose dependent manner |  | 
C[C@H]1C=C2C=C[C@H](C)[C@H](CC[C@@H]3C[C@@H](O[Si](C)(C)C(C)(C)C)CC(=O)O3)[C@H]2[C@@H](OC(=O)NCc2ccc(-c3cn(CCCCCCC(=O)NO)nn3)cc2)C1 [8b, (4R,6R)-6-(2-{(1S,2S,6R,8S,8aR)-8-[(4-{1-[7-(Hydroxyamino)-7-oxoheptyl]-1H-1,2,3-triazol-4-yl}benzyl)carbamoyloxy]-2,6-dimethyl-1,2,6,7,8,8a-hexahydronaphthyl}ethyl)-4-tert-butyldimethylsilyloxy-3,4,5,6-tetrahydro-2H-pyran-2-one] | 34 ± 4.3 nM | 125 ± 6.3 nM |  | 882 ± 9.7 nM |  |  | promoted histone and tubulin acetylation in a dose dependent manner | promoted histone and tubulin acetylation in a dose dependent manner |  | 
C[C@H]1C=C2C=C[C@H](C)[C@H](CC[C@@H]3C[C@@H](O[Si](C)(C)C(C)(C)C)CC(=O)O3)[C@H]2[C@@H](OC(=O)NCCCCCCC(=O)NO)C1 [12a, (4R,6R)-6-[2-((1S,2S,6R,8S,8aR)-8-{[7-(Hydroxyamino)-7-oxoheptyl]carbamoyloxy}-2,6-dimethyl-1,2,6,7,8,8a-hexahydronaphthyl)ethyl]-4-tert-butyldimethylsilyloxy-3,4,5,6-tetrahydro-2H-pyran-2-one] | 140 ± 5.7 nM |  |  |  | 122 ± 12.7 nM | 658 ± 21.1 nM |  |  |  | 
O=C(CCCCCCC(=O)Nc1ccccc1)NO [SAHA, suberanilohydroxamic acid, reference compound] |  |  |  |  |  |  | markedly induced | markedly induced | no inhibition on HMGR activity at any dose | failed to inhibit HMGR at any dose
CC[C@H](C)C(=O)O[C@H]1C[C@@H](C)C=C2C=C[C@H](C)[C@H](CC[C@@H]3C[C@@H](O)CC(=O)O3)[C@H]21 [lovastatin, reference compound] |  |  |  |  |  |  | no effect | no effect |  | 
